Reference: patent publication US20260116920A1, “HUMAN TRANSFERRIN RECEPTOR BINDING PEPTIDE” (PEPTIDREAM INC., priority 2021, published 2026)
Positions of bridges follow the written chain, without caps; N, C: chain ends. Non-standard residues stand in square brackets, D forms with d. Residues, ends and D or L forms follow the SMILES beside them. *: point of attachment. Ala(1-CH2CO2H-4-piperidyl) = N[C@@H](CC1CCN(CC(=O)O)CC1)C(=O)O; Trp(1-CH2COOH) = N[C@@H](Cc1cn(CC(=O)O)c2ccccc12)C(=O)O; NH(CH2CH2O)8Me = COCCOCCOCCOCCOCCOCCOCCOCCN*; NMePhe(3-Cl) = CN[C@@H](Cc1cccc(Cl)c1)C(=O)O; NMeY = CN[C@@H](Cc1ccc(O)cc1)C(=O)O; 4Pal = N[C@@H](Cc1ccncc1)C(=O)O; PEG4 = NCCOCCOCCOCCOCCC(=O)O; Carboxymethyl = O=C(O)C*; NHCH2CH2OH = OCCN*

Target: T1, human transferrin receptor (hTfR) (Homo sapiens, UniProt P02786)
T1 construct: made in house
T1 sequence (P02786 89-760 limits assumed): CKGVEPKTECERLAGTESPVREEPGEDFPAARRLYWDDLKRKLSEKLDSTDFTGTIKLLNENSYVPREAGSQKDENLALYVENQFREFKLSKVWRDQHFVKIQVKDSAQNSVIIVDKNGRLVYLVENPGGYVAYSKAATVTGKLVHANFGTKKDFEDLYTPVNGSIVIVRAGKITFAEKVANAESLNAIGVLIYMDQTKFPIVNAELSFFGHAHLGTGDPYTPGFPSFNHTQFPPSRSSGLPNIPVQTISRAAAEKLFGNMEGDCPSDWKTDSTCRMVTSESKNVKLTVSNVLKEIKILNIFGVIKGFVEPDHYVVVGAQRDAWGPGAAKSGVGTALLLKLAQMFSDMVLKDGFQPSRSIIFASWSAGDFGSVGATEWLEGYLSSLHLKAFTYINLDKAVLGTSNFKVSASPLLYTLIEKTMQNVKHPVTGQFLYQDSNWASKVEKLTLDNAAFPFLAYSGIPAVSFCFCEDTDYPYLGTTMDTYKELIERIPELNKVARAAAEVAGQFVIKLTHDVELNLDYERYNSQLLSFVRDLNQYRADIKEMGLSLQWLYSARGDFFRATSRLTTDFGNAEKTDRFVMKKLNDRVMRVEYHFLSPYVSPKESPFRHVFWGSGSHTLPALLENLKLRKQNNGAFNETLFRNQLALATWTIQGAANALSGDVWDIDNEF
Test: Evaluation of molecular interaction between transferrin receptor (hTfR) and peptide using surface plasmon resonance (SPR)
Assay type: binding
Conditions: KD class for binding to hTfR by SPR; peptide with the linker shown in the same line; 'low signal indicates no activity'; read-out: SPR
Procedure: Evaluation Test of Molecular Interaction Between Transferrin Receptor (hTfR) and Peptide Using Surface Plasmon Resonance (SPR)
The intermolecular interactions of various synthesized peptides with the transferrin receptor (hTfR) by surface plasmon resonance (SPR) of the peptides were tested by the methods described below. Specific test methods are shown below.
NTA sensor chip (Global Life Sciences Technologies Japan K.K.) was inserted into BiacoreT200 (Global Life Sciences Technologies Japan K.K.), then the priming operation was performed three times by using running buffer containing: 10 mM HEPES pH 8.0 (Nacalai Tesque, Inc.), 150 mM NaCl (Nacalai Tesque, Inc.), 0.05% Tween 20 (Nacalai Tesque, Inc.), 0.1% BSA (SIGMA-ALDRICH) and 1.0% DMSO (FUJIFILM Wako Pure Chemical Corporation), and equilibrated at a flow rate of 30 μL/min. 350 mM EDTA solution was reacted at a flow rate of 10 μL/min for 60 seconds, 0.5 mM […] solution (Kishida Chemical Co., Ltd.) was reacted at a flow rate of 10 μL/min for 60 seconds, and then the NTA sensor chip was washed with 3 mM EDTA solution (Nacalai Tesque, Inc.) at a flow rate of 10 μL/min for 60 seconds. After mixing 50 μL each of 60 mM EDC solution (Global Life Science Technologies Japan K.K.) and 650 mM NHS solution (Global Life Science Technologies Japan K.K.), the reaction was carried out at a flow rate of 10 μL/min for 420 seconds. 150 μL of 0.5 μM hTfR dimer solution was prepared by dilution with running buffer and reacted at a flow rate of 10 μL/min for 300 seconds to immobilize hTfR on the NTA sensor chip. For the human transferrin receptor (hTfR), recombinant hTfR described in Example 2 of WO2018/124121 was used. After immobilization, capping was performed by reacting with 1.0 M ethanolamine solution (Global Life Sciences Technologies Japan K.K.) at a flow rate of 10 μL/min for 420 seconds. Peptide lysate prepared in DMSO solution to 10 mM was diluted with running buffer to be a final concentration of 10 μM peptide lysate, then peptide solutions of 100 nM, 50 nM, 25 nM, 10 nM, and 5 nM were prepared. Using the above samples, the kinetics of the peptide against hTfR was obtained by SPR measurement.
The kinetic evaluation model was single-cycle kinetics, and curve fitting was performed using Biacore T200 Evaluation Software Version 3.0 (Global Life Science Technologies Japan K.K.). The binding of the peptide to hTfR was evaluated by performing curve fitting on the obtained sensorgram by least squares method and obtaining the KD value.

**Q.** How did the Kd turn out when `CC[C@H](C)[C@@H]1NC(=O)[C@H](Cc2ccc(OCC(=O)O)cc2)NC(=O)[C@H](Cc2ccc(O)cc2)NC(=O)[C@H](CC(N)=O)NC(=O)[C@H](Cc2c[nH]c3ccccc23)NC(=O)[C@H](C(C)C)NC(=O)[C@H](Cc2cccc(Cl)c2)N(C)C(=O)[C@H](C(C)C)NC(=O)[C@H](C)NC(=O)CSC[C@@H](C(=O)NCCOCCOCCOCCOCCC(N)=O)NC(=O)[C@H](Cc2ccc(O)cc2)N(C)C(=O)[C@H](Cc2cccc(C(=O)O)c2)NC(=O)[C@H](CCCNC(=N)N)NC(=O)[C@H](CCCNC(=N)N)NC(=O)[C@H]([C@@H](C)CC)NC1=O` [894_0363] was run?
**A.** 1 to 100 nM

**Q.** With `CC[C@H](C)[C@@H]1NC(=O)[C@H](Cc2ccc(OCC(=O)O)cc2)NC(=O)[C@H](Cc2ccc(O)cc2)NC(=O)[C@H](CC(N)=O)NC(=O)[C@H](Cc2c[nH]c3ccccc23)NC(=O)[C@H](C(C)C)NC(=O)[C@H](Cc2cccc(Cl)c2)N(C)C(=O)[C@H](C(C)C)NC(=O)[C@H](C)NC(=O)CSC[C@@H](C(=O)NCCOCCOCCOCCOCCC(N)=O)NC(=O)[C@H](Cc2ccc(O)cc2)N(C)C(=O)[C@H](Cc2ccncc2)NC(=O)[C@H](CCCNC(=N)N)NC(=O)[C@H](CCCNC(=N)N)NC(=O)[C@H]([C@@H](C)CC)NC1=O` [894_0364] as the compound, how does the Kd read?
**A.** 1 to 100 nM

**Q.** `CC[C@H](C)[C@@H]1NC(=O)[C@H](Cc2ccc(OC)cc2)NC(=O)[C@H](Cc2ccc(O)cc2)NC(=O)[C@H](CC(N)=O)NC(=O)[C@H](Cc2c[nH]c3ccccc23)NC(=O)[C@H](C(C)C)NC(=O)[C@H](Cc2cccc(Cl)c2)N(C)C(=O)[C@H](C(C)C)NC(=O)[C@H](C)NC(=O)CSC[C@@H](C(=O)NCCOCCOCCOCCOCCC(N)=O)NC(=O)[C@H](Cc2ccc(O)cc2)N(C)C(=O)[C@H](Cc2ccncc2)NC(=O)[C@H](CCC(=O)NCCOCCOCCOCCOCCOCCOCCOCCOC)NC(=O)[C@H](CCCNC(=N)N)NC(=O)[C@H]([C@@H](C)CC)NC1=O` [894_0366] ({CH2CO}-AV[NMePhe(3-Cl)]VWNYY(Me)IIRE(NH(CH2CH2O)8Me)[4Pal][NMeY]C[PEG4]-NH2; thioether N-15) was tested. Which Kd did it give?
**A.** 1 to 100 nM

**Q.** `CC[C@H](C)[C@@H]1NC(=O)[C@H](Cc2ccc(OCC(=O)O)cc2)NC(=O)[C@H](Cc2ccc(O)cc2)NC(=O)[C@H](CC(N)=O)NC(=O)[C@H](Cc2cn(CC(=O)O)c3ccccc23)NC(=O)[C@H](C(C)C)NC(=O)[C@H](Cc2cccc(Cl)c2)N(C)C(=O)[C@H](C(C)C)NC(=O)[C@H](C)NC(=O)CSC[C@@H](C(=O)NCCOCCOCCOCCOCCC(N)=O)NC(=O)[C@H](Cc2ccc(O)cc2)N(C)C(=O)[C@H](Cc2ccccc2)NC(=O)[C@H](CCCNC(=N)N)NC(=O)[C@H](CCCCNC(=O)OC)NC(=O)[C@H]([C@@H](C)CC)NC1=O` [894_0378] was tested. Which Kd did it give?
**A.** < 1 nM

**Q.** For `CC[C@H](C)[C@@H]1NC(=O)[C@H](Cc2ccc(OCC(=O)O)cc2)NC(=O)[C@H](Cc2ccc(O)cc2)NC(=O)[C@H](CC(N)=O)NC(=O)[C@H](Cc2cn(CC(=O)O)c3ccccc23)NC(=O)[C@H](C(C)C)NC(=O)[C@H](Cc2cccc(Cl)c2)N(C)C(=O)[C@H](C(C)C)NC(=O)[C@H](C)NC(=O)CSC[C@@H](C(=O)NCCOCCOCCOCCOCCC(N)=O)NC(=O)[C@H](Cc2ccc(O)cc2)N(C)C(=O)[C@H](Cc2ccccc2)NC(=O)[C@H](CCCCNC(=O)OC)NC(=O)[C@H](CCCNC(=N)N)NC(=O)[C@H]([C@@H](C)CC)NC1=O` [894_0379], which Kd is on record?
**A.** 1 to 100 nM

**Q.** For `CC[C@H](C)[C@@H]1NC(=O)[C@H](Cc2ccc(OCC(=O)O)cc2)NC(=O)[C@H](Cc2ccc(O)cc2)NC(=O)[C@H](CC(N)=O)NC(=O)[C@H](Cc2cn(CC(=O)O)c3ccccc23)NC(=O)[C@H](C(C)C)NC(=O)[C@H](Cc2cccc(Cl)c2)N(C)C(=O)[C@H](C(C)C)NC(=O)[C@H](C)NC(=O)CSC[C@@H](C(=O)NCCOCCOCCOCCOCCC(N)=O)NC(=O)[C@H](Cc2ccc(O)cc2)N(C)C(=O)[C@H](Cc2ccccc2)NC(=O)[C@H](CCCNC(=N)N)NC(=O)[C@H](CCC(=O)NCCO)NC(=O)[C@H]([C@@H](C)CC)NC1=O` [894_0380], which Kd is on record?
**A.** 1 to 100 nM

**Q.** How did the Kd turn out when `CC[C@H](C)[C@@H]1NC(=O)[C@H](Cc2ccc(OCC(=O)O)cc2)NC(=O)[C@H](Cc2ccc(O)cc2)NC(=O)[C@H](CC(N)=O)NC(=O)[C@H](Cc2cn(CC(=O)O)c3ccccc23)NC(=O)[C@H](C(C)C)NC(=O)[C@H](Cc2cccc(Cl)c2)N(C)C(=O)[C@H](C(C)C)NC(=O)[C@H](C)NC(=O)CSC[C@@H](C(=O)NCCOCCOCCOCCOCCC(N)=O)NC(=O)[C@H](Cc2ccc(O)cc2)N(C)C(=O)[C@H](Cc2ccccc2)NC(=O)[C@H](CCC(=O)NCCO)NC(=O)[C@H](CCCNC(=N)N)NC(=O)[C@H]([C@@H](C)CC)NC1=O` [894_0381] was run?
**A.** 1 to 100 nM

**Q.** With `CC[C@H](C)[C@@H]1NC(=O)[C@H](Cc2ccc(OCC(=O)O)cc2)NC(=O)[C@H](Cc2ccc(O)cc2)NC(=O)[C@H](CC(N)=O)NC(=O)[C@H](Cc2cn(CC(=O)O)c3ccccc23)NC(=O)[C@H](C(C)C)NC(=O)[C@H](Cc2cccc(Cl)c2)N(C)C(=O)[C@H](C(C)C)NC(=O)[C@H](C)NC(=O)CSC[C@@H](C(=O)NCCOCCOCCOCCOCCC(N)=O)NC(=O)[C@H](Cc2ccc(O)cc2)N(C)C(=O)[C@H](Cc2ccccc2)NC(=O)[C@H](CCC(=O)NCCO)NC(=O)[C@H](CCC(=O)NCCO)NC(=O)[C@H]([C@@H](C)CC)NC1=O` [894_0382] ({CH2CO}-AV[NMePhe(3-Cl)]V[Trp(1-CH2COOH)]NYY(Carboxymethyl)IIE(NHCH2CH2OH)E(NHCH2CH2OH)F[NMeY]C[PEG4]-NH2; thioether N-15) as the compound, how does the Kd read?
**A.** < 1 nM

**Q.** How did the Kd turn out when `CC[C@H](C)[C@@H]1NC(=O)[C@H](Cc2ccc(OCC(=O)O)cc2)NC(=O)[C@H](Cc2ccc(O)cc2)NC(=O)[C@H](CC(N)=O)NC(=O)[C@H](Cc2cn(CC(=O)O)c3ccccc23)NC(=O)[C@H](C(C)C)NC(=O)[C@H](Cc2cccc(Cl)c2)N(C)C(=O)[C@H](C(C)C)NC(=O)[C@H](C)NC(=O)CSC[C@@H](C(=O)NCCOCCOCCOCCOCCC(N)=O)NC(=O)[C@H](Cc2ccc(O)cc2)N(C)C(=O)[C@H](Cc2ccccc2)NC(=O)[C@H](CCCNC(=N)N)NC(=O)[C@H](CCC(=O)N2CCN(CC(=O)O)CC2)NC(=O)[C@H]([C@@H](C)CC)NC1=O` [894_0383] was run?
**A.** 1 to 100 nM

**Q.** Which Kd does the source give for `CC[C@H](C)[C@@H]1NC(=O)[C@H](Cc2ccc(OCC(=O)O)cc2)NC(=O)[C@H](Cc2ccc(O)cc2)NC(=O)[C@H](CC(N)=O)NC(=O)[C@H](Cc2cn(CC(=O)O)c3ccccc23)NC(=O)[C@H](C(C)C)NC(=O)[C@H](Cc2cccc(Cl)c2)N(C)C(=O)[C@H](C(C)C)NC(=O)[C@H](C)NC(=O)CSC[C@@H](C(=O)NCCOCCOCCOCCOCCC(N)=O)NC(=O)[C@H](Cc2ccc(O)cc2)N(C)C(=O)[C@H](Cc2ccccc2)NC(=O)[C@H](CCC(=O)N2CCN(CC(=O)O)CC2)NC(=O)[C@H](CCCNC(=N)N)NC(=O)[C@H]([C@@H](C)CC)NC1=O` [894_0384] here?
**A.** 1 to 100 nM

**Q.** With `CC[C@H](C)[C@@H]1NC(=O)[C@H](Cc2ccc(OCC(=O)O)cc2)NC(=O)[C@H](Cc2ccc(O)cc2)NC(=O)[C@H](CC(N)=O)NC(=O)[C@H](Cc2cn(CC(=O)O)c3ccccc23)NC(=O)[C@H](C(C)C)NC(=O)[C@H](Cc2cccc(Cl)c2)N(C)C(=O)[C@H](C(C)C)NC(=O)[C@H](C)NC(=O)CSC[C@@H](C(=O)NCCOCCOCCOCCOCCC(N)=O)NC(=O)[C@H](Cc2ccc(O)cc2)N(C)C(=O)[C@H](Cc2ccccc2)NC(=O)[C@H](CCCNC(=N)N)NC(=O)[C@H](CC2CCN(CC(=O)O)CC2)NC(=O)[C@H]([C@@H](C)CC)NC1=O` [894_0386] ({CH2CO}-AV[NMePhe(3-Cl)]V[Trp(1-CH2COOH)]NYY(Carboxymethyl)II[Ala(1-CH2CO2H-4-piperidyl)]RF[NMeY]C[PEG4]-NH2; thioether N-15) as the compound, how does the Kd read?
**A.** < 1 nM

**Q.** With `CC[C@H](C)[C@@H]1NC(=O)[C@H](Cc2ccc(OCC(=O)O)cc2)NC(=O)[C@H](Cc2ccc(O)cc2)NC(=O)[C@H](CC(N)=O)NC(=O)[C@H](Cc2cn(CC(=O)O)c3ccccc23)NC(=O)[C@H](C(C)C)NC(=O)[C@H](Cc2cccc(Cl)c2)N(C)C(=O)[C@H](C(C)C)NC(=O)[C@H](C)NC(=O)CSC[C@@H](C(=O)NCCOCCOCCOCCOCCC(N)=O)NC(=O)[C@H](Cc2ccc(O)cc2)N(C)C(=O)[C@H](Cc2ccccc2)NC(=O)[C@H](CC2CCN(CC(=O)O)CC2)NC(=O)[C@H](CCCNC(=N)N)NC(=O)[C@H]([C@@H](C)CC)NC1=O` [894_0387] ({CH2CO}-AV[NMePhe(3-Cl)]V[Trp(1-CH2COOH)]NYY(Carboxymethyl)IIR[Ala(1-CH2CO2H-4-piperidyl)]F[NMeY]C[PEG4]-NH2; thioether N-15) as the compound, how does the Kd read?
**A.** 1 to 100 nM
